Experiments:
Assay in all cases: Ba/F3 cell drug screening, Cell Titer Glo
Type in all cases: cell-based
EGFR L858R T790M V843I = biological target: T1, EGFR L858R T790M V843I (Homo sapiens, UniProt P00533, L858R/T790M/V843I); conditions: Ba/F3 cells expressing EGFR L858R T790M V843I; 72 hours
T1 construct: expressed in transfected cells; host or cells: Ba/F3 (retroviral transduction, pBabe-Puro based vectors)
Summary of the method: (§1)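 72 h viability, CellTiter-Glo luminescence; EGFR-mutant Ba/F3 (IL-3-independent, 1 ng/ml EGF), 7-point TKI dose vs DMSO, technical triplicate, 2–3 biological replicates. Normalized to DMSO; IC50 by variable-slope nonlinear regression at 50% inhibition.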

EGFR L747S = biological target: T2, EGFR L747S (Homo sapiens, UniProt P00533, L747S); conditions: Ba/F3 cells expressing EGFR L747S; 72 hours
T2 construct: expressed in transfected cells; host or cells: Ba/F3 (retroviral transduction, pBabe-Puro based vectors)
Summary of the method: as §1

EGFR G719A L861Q = biological target: T3, EGFR G719A L861Q (Homo sapiens, UniProt P00533, G719A/L861Q); conditions: Ba/F3 cells expressing EGFR G719A L861Q; 72 hours
T3 construct: expressed in transfected cells; host or cells: Ba/F3 (retroviral transduction, pBabe-Puro based vectors)
Summary of the method: as §1

EGFR L858R = biological target: T4, EGFR L858R (Homo sapiens, UniProt P00533, L858R); conditions: Ba/F3 cells expressing EGFR L858R; 72 hours
T4 construct: expressed in transfected cells; host or cells: Ba/F3 (retroviral, pBabe-Puro based vector)
Summary of the method: as §1

EGFR D761N = biological target: T5, EGFR D761N (Homo sapiens, UniProt P00533, D761N); conditions: Ba/F3 cells expressing EGFR D761N; 72 hours
T5 construct: expressed in transfected cells; host or cells: Ba/F3 (retroviral, pBabe-Puro based vector)
Summary of the method: as §1

EGFR L858R/L718V = biological target: T6, EGFR L858R/L718V (Homo sapiens, UniProt P00533, L718V/L858R); conditions: Ba/F3 cells expressing EGFR L858R/L718V; 72 hours
T6 construct: host or cells: Ba/F3 (retroviral transduction, pBabe-Puro based vectors)
Summary of the method: as §1

EGFR L858R T790M L718V = biological target: T7, EGFR L858R T790M L718V (Homo sapiens, UniProt P00533, L718V/L858R/T790M); conditions: Ba/F3 cells expressing EGFR L858R T790M L718V; 72 hours
T7 construct: expressed in transfected cells; host or cells: Ba/F3 (retroviral transduction, pBabe-Puro based vectors)
Summary of the method: as §1

EGFR D770insNPG = biological target: T8, EGFR D770insNPG (Homo sapiens, UniProt P00533, INS770NPG); conditions: Ba/F3 cells expressing EGFR D770insNPG; 72 hours
T8 construct: expressed in transfected cells; host or cells: Ba/F3 (retroviral, pBabe-Puro based vector)
Summary of the method: as §1

EGFR E709K = biological target: T9, EGFR E709K (Homo sapiens, UniProt P00533, E709K); conditions: Ba/F3 cells expressing EGFR E709K; 72 hours
T9 construct: expressed in transfected cells; host or cells: Ba/F3 (retroviral transduction, pBabe-Puro based vectors)
Summary of the method: as §1

EGFR G719A = biological target: T10, EGFR G719A (Homo sapiens, UniProt P00533, G719A); conditions: Ba/F3 cells expressing EGFR G719A; 72 hours
T10 construct: expressed in transfected cells; host or cells: Ba/F3 (retroviral transduction, pBabe-Puro based vectors)
Summary of the method: as §1

EGFR G719A/R776C = biological target: T11, EGFR G719A/R776C (Homo sapiens, UniProt P00533, G719A/R776C); conditions: Ba/F3 cells expressing EGFR G719A/R776C; 72 hours
T11 construct: expressed in transfected cells; host or cells: Ba/F3 (retroviral transduction, pBabe-Puro based vectors)
Summary of the method: as §1

EGFR K754E = biological target: T12, EGFR K754E (Homo sapiens, UniProt P00533, K754E); conditions: Ba/F3 cells expressing EGFR K754E; 72 hours
T12 construct: expressed in transfected cells; host or cells: Ba/F3 (retroviral, pBabe-Puro based vector)
Summary of the method: as §1

EGFR L858R/C797S = biological target: T13, EGFR L858R/C797S (Homo sapiens, UniProt P00533, C797S/L858R); conditions: Ba/F3 cells expressing EGFR L858R/C797S; 72 hours
T13 construct: expressed in transfected cells; host or cells: Ba/F3 (retroviral transduction, pBabe-Puro based vectors)
Summary of the method: as §1

EGFR T790M = biological target: T14, EGFR T790M (Homo sapiens, UniProt P00533, T790M); conditions: Ba/F3 cells expressing EGFR T790M; 72 hours
T14 construct: expressed in transfected cells; host or cells: Ba/F3 (retroviral transduction, pBabe-Puro based vectors)
Summary of the method: as §1

EGFR S768I/V769L = biological target: T15, EGFR S768I/V769L (Homo sapiens, UniProt P00533, S768I/V769L); conditions: Ba/F3 cells expressing EGFR S768I/V769L; 72 hours
T15 construct: host or cells: Ba/F3 (retroviral transduction, pBabe-Puro based vectors)
Summary of the method: as §1

EGFR I740dupIPVAK = conditions: Ba/F3 cells expressing EGFR I740dupIPVAK; 72 hours
Summary of the method: as §1

EGFR Ex19del G724S = biological target: T16, EGFR Ex19del G724S (Homo sapiens, UniProt P00533, DEL746-750/G724S); conditions: Ba/F3 cells expressing EGFR Ex19del G724S; 72 hours
T16 construct: expressed in transfected cells; host or cells: Ba/F3 (retroviral transduction, pBabe-Puro based vectors)
Summary of the method: as §1

C=CC(=O)N1CCC(Oc2cc3c(Nc4ccc(Cl)c(Cl)c4F)ncnc3cc2OC)CC1 [Poziotinib]
Response of Cells Comprising T790M-like-S EGFR Mutations to Second-Generation TKIs (EGFR L858R T790M V843I): 5.408 | Response of Cells Comprising PACC EGFR Mutations to Second-Generation TKIs (EGFR L747S): 0.01641 | Response of Cells Comprising PACC EGFR Mutations to Second-Generation TKIs (EGFR G719A L861Q): 0.09492 | Response of Cells Comprising Classical-Like EGFR Mutations to Second-Generation TKIs (EGFR L858R): 0.02579 | Response of Cells Comprising Classical-Like EGFR Mutations to Second-Generation TKIs (EGFR D761N): 0.007859 | Response of Cells Comprising PACC EGFR Mutations to Second-Generation TKIs (EGFR L858R/L718V): 0.01621 | Response of Cells Comprising T790M-like-R EGFR Mutations to Second-Generation TKIs (EGFR L858R T790M L718V): 33.63 | Response of Cells Comprising Ex20ins EGFR Mutations to Poziotinib (EGFR D770insNPG): 0.2889 | Response of Cells Comprising PACC EGFR Mutations to Second-Generation TKIs (EGFR E709K): 0.0379 | Response of Cells Comprising PACC EGFR Mutations to Second-Generation TKIs (EGFR G719A): 0.02575 | Response of Cells Comprising PACC EGFR Mutations to Second-Generation TKIs (EGFR G719A/R776C): 0.01624 | Response of Cells Comprising Classical-Like EGFR Mutations to Second-Generation TKIs (EGFR K754E): 0.009588 | Response of Cells Comprising PACC EGFR Mutations to Second-Generation TKIs (EGFR L858R/C797S): 0.2299 | Response of Cells Comprising T790M-like-S EGFR Mutations to Second-Generation TKIs (EGFR T790M): 4.671 | Response of Cells Comprising PACC EGFR Mutations to Second-Generation TKIs (EGFR S768I/V769L): 0.04206 | Response of Cells Comprising PACC EGFR Mutations to Second-Generation TKIs (EGFR I740dupIPVAK): 0.02483 | Response of Cells Comprising PACC EGFR Mutations to Second-Generation TKIs (EGFR Ex19del G724S): 0.4952
